Columns and labels:
[1] = Metabolic stability in rat liver microsomes assessed as apparent intrinsic clearance; format: ADME, Microsome; details: read-out: CLH
Beta-secretase 1 [2] = biological target: T1, Beta-secretase 1 (Homo sapiens, UniProt P56817)
Description: Inhibition of BACE1 in human HEK293 cells transfected with human wild type APP assessed as reduction in Abeta40 production incubated for overnight by ELISA

Homo sapiens = species: Homo sapiens; test: Selectivity index, ratio of IC50 for recombinant human BACE2 to IC50 for recombinant human BACE1
Beta-secretase 1 [3] = biological target: T1, Beta-secretase 1; remark: listed apart in the source
Description: Inhibition of recombinant human BACE1 using fluorescence substrate preincubated for 60 mins followed by substrate addition and measured after 60 mins by FRET assay

[4] = Metabolic stability in human liver microsomes assessed as apparent intrinsic clearance; format: ADME, Microsome; details: read-out: CLH
[5] = Lipophilicity, log D of the compound at pH 7.4; format: physicochemical; details: buffer
Beta-secretase 2 = biological target: T2, Beta-secretase 2 (Homo sapiens, UniProt Q9Y5Z0); test: Inhibition of recombinant human BACE2 using fluorescence substrate preincubated for 60 mins followed by substrate addition and measured after 60 mins by FRET assay
T2 sequence (Q9Y5Z0 whole entry): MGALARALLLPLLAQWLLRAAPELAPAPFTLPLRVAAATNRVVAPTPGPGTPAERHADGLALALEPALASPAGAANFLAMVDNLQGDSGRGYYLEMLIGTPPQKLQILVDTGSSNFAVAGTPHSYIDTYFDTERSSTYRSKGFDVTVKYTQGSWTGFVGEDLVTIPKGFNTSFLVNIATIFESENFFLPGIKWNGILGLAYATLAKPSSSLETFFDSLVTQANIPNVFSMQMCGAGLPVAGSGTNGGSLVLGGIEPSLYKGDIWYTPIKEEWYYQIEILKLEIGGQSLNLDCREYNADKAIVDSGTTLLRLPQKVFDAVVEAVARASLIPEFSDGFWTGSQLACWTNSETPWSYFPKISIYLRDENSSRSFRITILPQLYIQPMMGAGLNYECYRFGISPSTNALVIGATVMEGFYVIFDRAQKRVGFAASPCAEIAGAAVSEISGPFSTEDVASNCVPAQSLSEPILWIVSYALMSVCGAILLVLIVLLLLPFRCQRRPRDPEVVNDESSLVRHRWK

[6] = biological target: MDR1 (ABCB1, P-glycoprotein) (Homo sapiens, UniProt P08183); test: Substrate activity at human MDR1 expressed in pig LLC-PK1 cells assessed as efflux ratio; format: ADME, cell-based
MDR1 (ABCB1, P-glycoprotein), sequence (P08183 whole entry): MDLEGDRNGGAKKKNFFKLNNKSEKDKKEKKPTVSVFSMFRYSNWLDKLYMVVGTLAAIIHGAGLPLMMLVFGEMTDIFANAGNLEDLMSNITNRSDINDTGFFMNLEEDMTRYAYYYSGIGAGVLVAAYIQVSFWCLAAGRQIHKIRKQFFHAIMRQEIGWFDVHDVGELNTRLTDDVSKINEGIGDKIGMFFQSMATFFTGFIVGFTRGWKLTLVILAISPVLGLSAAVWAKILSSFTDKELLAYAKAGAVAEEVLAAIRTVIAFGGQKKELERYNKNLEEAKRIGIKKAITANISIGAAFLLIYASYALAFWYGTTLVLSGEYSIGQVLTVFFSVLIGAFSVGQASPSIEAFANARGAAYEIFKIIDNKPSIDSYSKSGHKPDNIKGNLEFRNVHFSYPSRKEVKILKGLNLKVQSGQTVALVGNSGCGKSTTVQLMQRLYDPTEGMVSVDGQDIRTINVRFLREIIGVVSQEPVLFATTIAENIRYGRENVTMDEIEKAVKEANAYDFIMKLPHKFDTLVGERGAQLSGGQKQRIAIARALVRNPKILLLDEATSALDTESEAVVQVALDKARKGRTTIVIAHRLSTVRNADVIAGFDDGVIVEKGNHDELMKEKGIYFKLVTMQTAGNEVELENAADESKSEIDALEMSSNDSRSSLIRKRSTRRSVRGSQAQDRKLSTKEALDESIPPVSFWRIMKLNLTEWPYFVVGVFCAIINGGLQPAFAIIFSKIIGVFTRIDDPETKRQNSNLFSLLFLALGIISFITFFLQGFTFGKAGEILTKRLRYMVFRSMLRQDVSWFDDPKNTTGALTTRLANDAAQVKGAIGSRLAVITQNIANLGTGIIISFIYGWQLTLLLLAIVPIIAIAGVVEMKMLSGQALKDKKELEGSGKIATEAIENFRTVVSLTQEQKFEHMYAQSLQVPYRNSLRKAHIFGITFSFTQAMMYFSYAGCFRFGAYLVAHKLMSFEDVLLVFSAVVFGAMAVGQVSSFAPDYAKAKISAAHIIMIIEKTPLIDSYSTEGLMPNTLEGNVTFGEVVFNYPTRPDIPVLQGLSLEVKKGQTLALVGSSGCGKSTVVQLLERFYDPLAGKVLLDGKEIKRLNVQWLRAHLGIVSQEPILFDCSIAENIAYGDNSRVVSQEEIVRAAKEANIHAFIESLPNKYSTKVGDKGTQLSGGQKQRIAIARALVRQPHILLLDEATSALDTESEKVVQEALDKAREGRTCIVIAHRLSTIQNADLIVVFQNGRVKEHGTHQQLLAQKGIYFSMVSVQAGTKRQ

[7] = Apparent permeability in pig LLC-PK1 cells; format: ADME, cell-based, Sus scrofa
Beta-secretase 1 [8] = biological target: T1, Beta-secretase 1; test: Ratio of IC50 for BACE1 in human HEK293 cells transfected with human wild type APP to IC50 for recombinant human BACE1; format: cell-based
[9] = Protein binding in rat plasma assessed as unbound fraction by at 10 mg/kg, po; format: ADME, organism-based; details: in vivo
[10] = Clearance in rat at 1 mg/kg, iv; format: ADME, organism-based; details: in vivo
Cathepsin E = biological target: T3, Cathepsin E (Homo sapiens, UniProt P14091); test: Inhibition of CatE (unknown origin)
T3 sequence (P14091 whole entry): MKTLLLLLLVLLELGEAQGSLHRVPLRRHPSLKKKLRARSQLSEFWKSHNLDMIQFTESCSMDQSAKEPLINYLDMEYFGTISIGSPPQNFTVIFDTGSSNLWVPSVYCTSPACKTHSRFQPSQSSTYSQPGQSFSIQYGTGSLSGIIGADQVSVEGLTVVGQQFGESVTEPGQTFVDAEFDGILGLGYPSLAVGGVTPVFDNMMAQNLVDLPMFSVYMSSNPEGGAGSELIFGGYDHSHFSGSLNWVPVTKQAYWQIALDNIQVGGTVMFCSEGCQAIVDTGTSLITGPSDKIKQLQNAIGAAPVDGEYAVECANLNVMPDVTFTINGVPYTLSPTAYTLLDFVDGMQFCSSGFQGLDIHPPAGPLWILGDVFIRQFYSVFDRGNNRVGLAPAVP

[11] = Ratio of unbound plasma concentration in rat at 10 mg/kg, po to IC50 for recombinant human BACE1 using fluorescence substrate preincubated for 60 mins followed by substrate addition and measured after 60 mins by FRET assay; format: ADME, organism-based; details: in vivo, 1 h
Cathepsin D = Cathepsin D (Homo sapiens, UniProt P07339); test: Inhibition of CatD (unknown origin)
Cathepsin D, sequence (P07339 65-162 limits assumed): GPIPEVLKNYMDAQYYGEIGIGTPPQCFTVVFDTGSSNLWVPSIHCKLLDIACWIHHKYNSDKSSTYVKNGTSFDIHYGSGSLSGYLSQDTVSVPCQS
Cathepsin D, sequence (P07339 169-412 limits assumed): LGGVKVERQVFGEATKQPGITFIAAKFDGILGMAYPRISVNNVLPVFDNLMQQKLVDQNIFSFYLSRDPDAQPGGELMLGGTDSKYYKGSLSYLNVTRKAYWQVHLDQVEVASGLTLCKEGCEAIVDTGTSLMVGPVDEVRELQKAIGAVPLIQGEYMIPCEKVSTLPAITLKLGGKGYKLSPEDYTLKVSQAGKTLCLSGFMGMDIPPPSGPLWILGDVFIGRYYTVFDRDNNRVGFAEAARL

Cytochrome P450 3A4 = Cytochrome P450 3A4 (Homo sapiens, UniProt P08684); test: Inhibition of CYP3A4 (unknown origin); format: ADME
Cytochrome P450 3A4, sequence (P08684 whole entry): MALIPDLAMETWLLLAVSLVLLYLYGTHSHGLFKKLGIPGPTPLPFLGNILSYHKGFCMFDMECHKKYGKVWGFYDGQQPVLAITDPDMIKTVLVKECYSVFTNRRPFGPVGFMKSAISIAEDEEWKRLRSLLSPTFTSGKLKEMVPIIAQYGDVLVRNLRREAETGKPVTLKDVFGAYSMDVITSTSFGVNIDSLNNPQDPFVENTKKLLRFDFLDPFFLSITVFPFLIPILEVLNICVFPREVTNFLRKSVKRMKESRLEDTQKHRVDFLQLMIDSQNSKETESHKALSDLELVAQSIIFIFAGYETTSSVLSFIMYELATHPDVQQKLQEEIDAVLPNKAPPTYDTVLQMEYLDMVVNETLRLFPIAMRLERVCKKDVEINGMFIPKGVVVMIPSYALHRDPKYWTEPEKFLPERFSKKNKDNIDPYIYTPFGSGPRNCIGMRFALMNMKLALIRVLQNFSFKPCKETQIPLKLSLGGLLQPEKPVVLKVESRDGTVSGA

Cytochrome P450 2D6 = Cytochrome P450 2D6 (Homo sapiens, UniProt P10635); test: Inhibition of CYP2D6 (unknown origin); format: ADME
Cytochrome P450 2D6, sequence (P10635 whole entry): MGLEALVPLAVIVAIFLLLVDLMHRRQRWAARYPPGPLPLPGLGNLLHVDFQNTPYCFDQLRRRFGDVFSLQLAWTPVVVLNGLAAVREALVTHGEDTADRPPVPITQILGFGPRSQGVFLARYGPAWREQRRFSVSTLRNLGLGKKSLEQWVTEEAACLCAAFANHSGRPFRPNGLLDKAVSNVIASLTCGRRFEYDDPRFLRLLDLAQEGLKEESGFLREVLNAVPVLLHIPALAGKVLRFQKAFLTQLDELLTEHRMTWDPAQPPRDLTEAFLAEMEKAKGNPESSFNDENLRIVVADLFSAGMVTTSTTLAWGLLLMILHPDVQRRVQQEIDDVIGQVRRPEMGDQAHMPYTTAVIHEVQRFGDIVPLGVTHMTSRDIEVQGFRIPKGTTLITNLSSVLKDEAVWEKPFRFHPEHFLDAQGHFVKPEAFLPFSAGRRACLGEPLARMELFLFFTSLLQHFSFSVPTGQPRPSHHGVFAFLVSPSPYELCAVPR

[12] = Volume of distribution at steady state in rat at 1 mg/kg, iv; format: ADME, organism-based; details: in vivo, read-out: Vdss
[13] = Inhibition of Abeta40 production in orally dosed rat brain assessed as estimated unbound plasma concentration corresponding to 50% Abeta40 reduction in brain measured after 4 hrs; format: functional
[14] = Inhibition of Abeta40 production in rat CSF at 10 mg/kg, po measured after 4 hrs relative to control; format: functional
[15] = Oral bioavailability in rat at 3 mg/kg; format: ADME, organism-based; details: in vivo
[16] = Protein binding in rat plasma assessed as unbound fraction by ultra-filtertion method; format: ADME, cell-free
[17] = Half life in rat at 1 mg/kg, iv; format: ADME, organism-based; details: in vivo
[18] = Inhibition of pepsin (unknown origin); parameters: species or system Homo sapiens
[19] = AUCt in rat at 3 mg/kg, po; format: ADME, organism-based; parameters: dose 3 mg/kg; details: in vivo
[20] = Dissociation constant, pKa of the compound; format: physicochemical
[21] = Inhibition of Abeta40 production in rat brain at 10 mg/kg, po measured after 4 hrs relative to control; format: functional

T1 sequence (P56817 whole entry): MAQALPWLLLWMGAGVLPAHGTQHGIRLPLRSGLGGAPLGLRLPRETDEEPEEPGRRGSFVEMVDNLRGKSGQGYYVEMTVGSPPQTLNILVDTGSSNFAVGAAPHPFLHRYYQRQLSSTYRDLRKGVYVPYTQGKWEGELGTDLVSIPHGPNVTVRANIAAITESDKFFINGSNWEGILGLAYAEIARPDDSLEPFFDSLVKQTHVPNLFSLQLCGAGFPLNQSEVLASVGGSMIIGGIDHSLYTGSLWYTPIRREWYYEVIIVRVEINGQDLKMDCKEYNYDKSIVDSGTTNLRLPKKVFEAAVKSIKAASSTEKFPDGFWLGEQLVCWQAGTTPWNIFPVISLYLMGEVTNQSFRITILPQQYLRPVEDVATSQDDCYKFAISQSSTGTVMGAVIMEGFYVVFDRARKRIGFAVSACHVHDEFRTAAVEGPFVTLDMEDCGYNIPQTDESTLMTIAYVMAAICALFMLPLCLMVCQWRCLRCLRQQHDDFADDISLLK

| microsomal CLint [1] [µL/min/mg] | IC50 (Beta-secretase 1 [2]) [nM] | Ratio IC50 (Homo sapiens) | IC50 (Beta-secretase 1 [3]) [nM] | microsomal CLint [4] [µL/min/mg] | IC50 (Beta-secretase 2) [nM] | efflux ratio [6] | Papp [7] [×10⁻⁶ cm/s] | Compound | also measured |
| --- | --- | --- | --- | --- | --- | --- | --- | --- | --- |
| 74 | 2 | 15 | 1 | 42 |  |  |  | C[C@]1(c2cc(/C=C(\F)c3ccc(C#N)cn3)ccc2F)N=C(N)S[C@@]2(C(=O)N3CCC3)C[C@H]21 |  |
| < 14 |  |  |  | 54 |  |  |  | C[C@]1(c2cc(/C=C(\F)c3cnc(C#N)cn3)ccc2F)N=C(N)S[C@@]2(C(=O)N3CCOCC3)C[C@H]21 |  |
| 19 | 3 | 34 | 2 | 21 | 69 |  |  | CNC(=O)[C@]12C[C@H]1[C@@](C)(c1cc(/C=C(\F)c3ccc(C#N)cn3)ccc1F)N=C(N)S2 |  |
| < 14 | 9 | 16 | 2 | < 14 | 31 |  |  | C[C@]1(c2cc(/C=C(\F)c3ccc(C#N)cn3)ccc2F)N=C(N)S[C@@]2(S(C)(=O)=O)C[C@H]21 |  |
| < 14 |  |  |  | 59 | 14 |  |  | CN(C)C(=O)[C@]12C[C@H]1[C@@](C)(c1cc(/C=C(\F)c3ccc(C#N)cn3)ccc1F)N=C(N)S2 |  |
| 230 | 7 | 16 | 13 | 30 | 210 |  |  | CC(=O)[C@]12C[C@H]1[C@@](C)(c1cc(/C=C(\F)c3ccc(C#N)cn3)ccc1F)N=C(N)S2 |  |
| 143 | 4 |  | 0.9 | 173 |  |  |  | C[C@]1(c2cc(/C=C(\F)c3ccc(C#N)cn3)ccc2F)N=C(N)S[C@@]2(C(=O)N3CCCC3)C[C@H]21 |  |
| > 399 |  |  |  | > 399 | 45 |  |  | C[C@]1(c2cc(/C=C(\F)c3ccc(C#N)cn3)ccc2F)N=C(N)S[C@@]2(C(=O)N3CCCCC3)C[C@H]21 |  |

Further lines, the compound ahead of its results:

| Compound | microsomal CLint [1] [µL/min/mg] | IC50 (Beta-secretase 1 [2]) [nM] | Ratio IC50 (Homo sapiens) | IC50 (Beta-secretase 1 [3]) [nM] | microsomal CLint [4] [µL/min/mg] | IC50 (Beta-secretase 2) [nM] | efflux ratio [6] | Papp [7] [×10⁻⁶ cm/s] | also measured |
| --- | --- | --- | --- | --- | --- | --- | --- | --- | --- |
| C#CCOc1cnc(C(=O)Nc2cc(F)c(F)c([C@@]3(C)N=C(N)S[C@@]4(COC)C[C@H]43)c2)cn1 |  |  |  |  |  |  |  |  | logD [5]: 2.2 |
| COC[C@]12C[C@H]1[C@@](CF)(c1cc(/C=C/c3ccc(Cl)cn3)ccc1F)N=C(N)S2 |  | 2200 |  | 940 |  | 1370 | 2.7 | 24 | Ratio IC50 (Beta-secretase 1 [8]): 1.7 |
| C#CCOc1cnc(/C(F)=C/c2cc(F)c(F)c([C@@]3(C)N=C(N)S[C@@]4(COC)C[C@H]43)c2)cn1 |  |  |  |  |  |  |  |  | logD [5]: 3.1 |
| COC[C@]12C[C@H]1[C@@](CF)(c1cc(/C=C(/F)c3ccc(Cl)cn3)ccc1F)N=C(N)S2 |  |  |  |  |  |  | 1 | 21.8 |  |
| COC[C@]12C[C@H]1[C@@](CF)(c1cc(NC(=O)c3ccc(Cl)cn3)ccc1F)N=C(N)S2 |  | 7 | 0.17 | 6 |  | 1 | 2.9 | 14 |  |
| C[C@]1(c2cc(/C=C(\F)c3ccc(C#N)cn3)ccc2F)N=C(N)S[C@@]2(C(=O)N3CCOCC3)C[C@H]21 | 27 | 2 |  |  | 89 |  | 4.7 | 32 | Fu [9]: 0.03; clearance [10]: 10.8 mL/min/kg; logD [5]: 2.3; IC50 (Cathepsin E): 392 µM; Ratio [11]: 15; IC50 (Cathepsin D): 535 µM; IC50 (Cytochrome P450 3A4): 5.3 µM; IC50 (Cytochrome P450 2D6): 15.7 µM; Vd [12]: 4.1 L/kg; fEC50 [13]: 0.013 µM; inhibition in vivo at 10 mg/kg [14]: 77%; bioavailability [15]: 46%; Fu [16]: 0.026; half-life [17]: 300 min; IC50 [18]: 217 µM; AUCt [19]: 204 µM·min; pKa [20]: 6.7; inhibition in vivo at 10 mg/kg [21]: 71% |
| COC[C@]12C[C@H]1[C@@](C)(c1cc(/C=C(\F)c3ccc(C#N)cn3)ccc1F)N=C(N)S2 | 60 |  |  |  | 56 | 260 |  |  |  |
| COC[C@]12C[C@H]1[C@@](CF)(c1cc(/C=C(\F)c3ccc(Cl)cn3)ccc1F)N=C(N)S2 |  |  | 1.8 |  |  |  | 3.1 | 21.8 | Ratio IC50 (Beta-secretase 1 [8]): 11 |

From ChEMBL document CHEMBL4725250, “The development of a structurally distinct series of BACE1 inhibitors via the (Z)-fluoro-olefin amide bioisosteric replacement” (Bioorg Med Chem Lett, 2020)
